Source: US6737383B1, “Herbicidal oxadiazolidines” (priority 1999, dated 2004)

Legend:
[1] = tested on: Green foxtail; assay: Test D green foxtail; assay type: in vivo
Summary of the method: (§1)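 Visual injury ratings, 0 = no injury to 100 = complete control, taken 14 to 21 days after treatment. Test chemicals were in a surfactant-containing non-phytotoxic solvent; preemergence treatments went onto the sandy loam surface of seeded greenhouse pots within one day of sowing.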

[2] = tested on: itchgrass; assay: Test D itchgrass; assay type: in vivo, Rottboellia exaltata; details: Preemergence, 0 to 100 scale
Summary of the method: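 Scoring used a 0–100 visual injury scale, with 0 meaning no effect and 100 complete control, assessed 14–21 days after application alongside untreated pots. Preemergence treatments went onto sandy loam surfaces of separately potted seeds within a day of sowing.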

[3] = tested on: tall mallow; assay: Test D tall mallow; assay type: in vivo, Malva sylvestris; details: Preemergence, 0 to 100 scale
Summary of the method: as §1

[4] = tested on: Green foxtail; assay: Test D green foxtail; assay type: in vivo; details: Preemergence, 0 to 100 scale
Summary of the method: as §1

[5] = tested on: common ragweed; assay: Test D common ragweed; assay type: in vivo, Ambrosia elatior; details: Preemergence, 0 to 100 scale
Summary of the method: as §1

[6] = tested on: Johnson grass; assay: Test D Johnson grass; assay type: in vivo, Sorghum halepense; details: Preemergence, 0 to 100 scale
Summary of the method: as §1

[7] = tested on: dallisgrass; assay: Test D dallisgrass; assay type: in vivo, Paspalum dilatatum; details: Preemergence, 0 to 100 scale
Summary of the method: as §1

[8] = tested on: Alexandergrass; assay: Test D Alexandergrass; assay type: in vivo, Brachiaria plantaginea; details: Preemergence, 0 to 100 scale
Summary of the method: as §1

[9] = tested on: common groundsel; assay: Test D common groundsel; assay type: in vivo, Senecio vulgaris; details: Preemergence, 0 to 100 scale
Summary of the method: as §1

[10] = tested on: large crabgrass; assay: Test D large crabgrass; assay type: in vivo, Digitaria sanguinalis; details: Preemergence, 0 to 100 scale
Summary of the method: as §1

[11] = tested on: guineagrass; assay: Test D guineagrass; assay type: in vivo, Panicum maximum; details: Preemergence, 0 to 100 scale
Summary of the method: as §1

[12] = tested on: bermuda-grass; assay: Test D bermudagrass; assay type: in vivo, Cynodon dactylon; details: Preemergence, 0 to 100 scale
Summary of the method: as §1

[13] = tested on: surinam grass; assay: Test D surinam grass; assay type: in vivo, Brachiaria decumbens; details: Preemergence, 0 to 100 scale
Summary of the method: as §1

[14] = tested on: pitted morningglory; assay: Test D pitted morningglory; assay type: in vivo, Ipomoea lacunosa; details: Preemergence, 0 to 100 scale
Summary of the method: as §1

[15] = tested on: Spanishneedles; assay: Test D Spanishneedles; assay type: in vivo, Bidens bipinnata; details: Preemergence, 0 to 100 scale
Summary of the method: as §1

[16] = Rate 64 g/ha, Preemergence; 0 to 100 scale, 0 no injury, 100 complete control
[17] = Rate 125 g/ha, Preemergence; 0 to 100 scale, 0 no injury, 100 complete control
[18] = Rate 16 g/ha, 0 no injury, 100 complete control
[19] = Rate 32 g/ha, 0 no injury, 100 complete control
[20] = Rate 64 g/ha, 0 no injury, 100 complete control
[21] = Rate 125 g/ha, 0 no injury, 100 complete control

CC(C)N(C(=O)n1oc(=O)n(Cc2cccs2)c1=O)c1ccccc1 [Compound 103]
Plant response rating, Green foxtail ([1]; Preemergence; Rate 16 g/ha; 0 to 100 scale, 0 no injury, 100 complete control): 0
Plant response rating, Green foxtail ([1]; Preemergence; Rate 32 g/ha; 0 to 100 scale, 0 no injury, 100 complete control): 0
Plant response rating, Green foxtail ([1]; Rate 16 g/ha; Preemergence; 0 to 100 scale, 0 no injury, 100 complete control): 0
Plant response rating, Green foxtail ([1]; Rate 32 g/ha; Preemergence; 0 to 100 scale, 0 no injury, 100 complete control): 85
Green foxtail plant response rating [1, 16]: 50
Plant response rating, Green foxtail [1, 16]: 50
Green foxtail plant response rating [1, 17]: 100
Plant response rating, Green foxtail [1, 17]: 100
Plant response rating, Green foxtail ([1]; Rate 250 g/ha; Preemergence; 0 to 100 scale): 100
Plant response rating, Green foxtail ([1]; Rate 500 g/ha, Preemergence; 0 to 100 scale): 100
Plant response rating, Itchgrass [2, 18]: 0
Plant response rating, Itchgrass [2, 19]: 0
Plant response rating, Itchgrass [2, 20]: 0
Plant response rating, Itchgrass [2, 21]: 0
Plant response rating, Itchgrass ([2]; Rate 250 g/ha): 0
Plant response rating, Itchgrass ([2]; Rate 500 g/ha): 0
Plant response rating, Tall Mallow [3, 18]: 0
Plant response rating, Tall Mallow [3, 19]: 0
Tall Mallow plant response rating [3, 20]: 0
Tall Mallow plant response rating [3, 21]: 0
Plant response rating, Tall Mallow ([3]; Rate 250 g/ha): 0
Plant response rating, Tall Mallow ([3]; Rate 500 g/ha): 0
Plant response rating, Green foxtail ([4]; Rate 250 g/ha): 100
Plant response rating, Green foxtail ([4]; Rate 500 g/ha): 100
Plant response rating, C. ragweed [5, 18]: 0
Plant response rating, C. ragweed [5, 19]: 0
Plant response rating, C. ragweed [5, 20]: 0
Plant response rating, C. ragweed [5, 21]: 0
Plant response rating, C. ragweed ([5]; Rate 250 g/ha): 0
Plant response rating, C. ragweed ([5]; Rate 500 g/ha): 0
Plant response rating, Johnsongrass [6, 18]: 0
Plant response rating, Johnsongrass [6, 19]: 0
Plant response rating, Johnsongrass [6, 20]: 0
Plant response rating, Johnsongrass [6, 21]: 0
Plant response rating, Johnsongrass ([6]; Rate 250 g/ha): 0
Plant response rating, Johnsongrass ([6]; Rate 500 g/ha): 40
Plant response rating, Dallisgrass [7, 18]: 10
Plant response rating, Dallisgrass [7, 19]: 20
Plant response rating, Dallisgrass [7, 20]: 45
Plant response rating, Dallisgrass [7, 21]: 65
Plant response rating, Dallisgrass ([7]; Rate 250 g/ha): 98
Plant response rating, Dallisgrass ([7]; Rate 500 g/ha): 100
Plant response rating, Alexandergrass [8, 18]: 0
Plant response rating, Alexandergrass [8, 19]: 0
Plant response rating, Alexandergrass [8, 20]: 0
Plant response rating, Alexandergrass [8, 21]: 40
Plant response rating, Alexandergrass ([8]; Rate 250 g/ha): 85
Plant response rating, Alexandergrass ([8]; Rate 500 g/ha): 95
Plant response rating, Com. groundsel [9, 18]: 0
Plant response rating, Com. groundsel [9, 19]: 0
Plant response rating, Com. groundsel [9, 20]: 0
Plant response rating, Com. groundsel [9, 21]: 0
Plant response rating, Com. groundsel ([9]; Rate 250 g/ha): 0
Plant response rating, Com. groundsel ([9]; Rate 500 g/ha): 0
Plant response rating, Large crabgrass [10, 18]: 0
Plant response rating, Large crabgrass [10, 19]: 0
Plant response rating, Large crabgrass [10, 20]: 85
Plant response rating, Large crabgrass [10, 21]: 95
Plant response rating, Large crabgrass ([10]; Rate 250 g/ha): 98
Plant response rating, Large crabgrass ([10]; Rate 500 g/ha): 100
Plant response rating, Guineagrass [11, 18]: 0
Plant response rating, Guineagrass [11, 19]: 0
Plant response rating, Guineagrass [11, 20]: 0
Plant response rating, Guineagrass [11, 21]: 85
Plant response rating, Guineagrass ([11]; Rate 250 g/ha): 90
Plant response rating, Guineagrass ([11]; Rate 500 g/ha): 100
Plant response rating, Bermudagrass [12, 18]: 30
Plant response rating, Bermudagrass [12, 19]: 30
Plant response rating, Bermudagrass [12, 20]: 60
Plant response rating, Bermudagrass [12, 21]: 80
Plant response rating, Bermudagrass ([12]; Rate 250 g/ha): 100
Plant response rating, Bermudagrass ([12]; Rate 500 g/ha): 100
Plant response rating, Surinam grass [13, 18]: 0
Plant response rating, Surinam grass [13, 19]: 0
Surinam grass plant response rating [13, 20]: 0
Surinam grass plant response rating [13, 21]: 0
Plant response rating, Surinam grass ([13]; Rate 250 g/ha): 0
Plant response rating, Surinam grass ([13]; Rate 500 g/ha): 40
Plant response rating, P. morninglory [14, 18]: 0
Plant response rating, P. morninglory [14, 19]: 0
Plant response rating, P. morninglory [14, 20]: 0
Plant response rating, P. morninglory [14, 21]: 0
Plant response rating, P. morninglory ([14]; Rate 250 g/ha): 0
Plant response rating, P. morninglory ([14]; Rate 500 g/ha): 0
Plant response rating, Spanishneedles [15, 18]: 0
Plant response rating, Spanishneedles [15, 19]: 0
Spanishneedles plant response rating [15, 20]: 0
Spanishneedles plant response rating [15, 21]: 0
Plant response rating, Spanishneedles ([15]; Rate 500 g/ha): 20
